Columns and labels:
[1] = target: T1, Gastric inhibitory polypeptide receptor (Homo sapiens, UniProt P48546)
T1 sequence (P48546 whole entry): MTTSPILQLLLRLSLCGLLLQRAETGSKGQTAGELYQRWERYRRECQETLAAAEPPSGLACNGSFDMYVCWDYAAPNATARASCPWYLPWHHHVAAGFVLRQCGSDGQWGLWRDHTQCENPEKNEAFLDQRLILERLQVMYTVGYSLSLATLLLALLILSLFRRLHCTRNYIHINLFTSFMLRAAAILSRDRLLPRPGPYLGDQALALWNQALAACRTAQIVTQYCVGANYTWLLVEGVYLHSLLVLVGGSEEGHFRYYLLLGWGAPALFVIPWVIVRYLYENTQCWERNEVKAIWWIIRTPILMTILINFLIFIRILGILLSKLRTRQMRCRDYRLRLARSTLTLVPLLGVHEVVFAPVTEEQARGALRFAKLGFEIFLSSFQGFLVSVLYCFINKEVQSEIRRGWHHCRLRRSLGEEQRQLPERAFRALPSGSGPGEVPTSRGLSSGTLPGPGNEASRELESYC

[2] = target: Voltage-dependent N-type calcium channel subunit alpha-1B (Rattus norvegicus, UniProt Q02294); assay type: functional
Chain of Voltage-dependent N-type calcium channel subunit alpha-1B (Q02294 whole entry): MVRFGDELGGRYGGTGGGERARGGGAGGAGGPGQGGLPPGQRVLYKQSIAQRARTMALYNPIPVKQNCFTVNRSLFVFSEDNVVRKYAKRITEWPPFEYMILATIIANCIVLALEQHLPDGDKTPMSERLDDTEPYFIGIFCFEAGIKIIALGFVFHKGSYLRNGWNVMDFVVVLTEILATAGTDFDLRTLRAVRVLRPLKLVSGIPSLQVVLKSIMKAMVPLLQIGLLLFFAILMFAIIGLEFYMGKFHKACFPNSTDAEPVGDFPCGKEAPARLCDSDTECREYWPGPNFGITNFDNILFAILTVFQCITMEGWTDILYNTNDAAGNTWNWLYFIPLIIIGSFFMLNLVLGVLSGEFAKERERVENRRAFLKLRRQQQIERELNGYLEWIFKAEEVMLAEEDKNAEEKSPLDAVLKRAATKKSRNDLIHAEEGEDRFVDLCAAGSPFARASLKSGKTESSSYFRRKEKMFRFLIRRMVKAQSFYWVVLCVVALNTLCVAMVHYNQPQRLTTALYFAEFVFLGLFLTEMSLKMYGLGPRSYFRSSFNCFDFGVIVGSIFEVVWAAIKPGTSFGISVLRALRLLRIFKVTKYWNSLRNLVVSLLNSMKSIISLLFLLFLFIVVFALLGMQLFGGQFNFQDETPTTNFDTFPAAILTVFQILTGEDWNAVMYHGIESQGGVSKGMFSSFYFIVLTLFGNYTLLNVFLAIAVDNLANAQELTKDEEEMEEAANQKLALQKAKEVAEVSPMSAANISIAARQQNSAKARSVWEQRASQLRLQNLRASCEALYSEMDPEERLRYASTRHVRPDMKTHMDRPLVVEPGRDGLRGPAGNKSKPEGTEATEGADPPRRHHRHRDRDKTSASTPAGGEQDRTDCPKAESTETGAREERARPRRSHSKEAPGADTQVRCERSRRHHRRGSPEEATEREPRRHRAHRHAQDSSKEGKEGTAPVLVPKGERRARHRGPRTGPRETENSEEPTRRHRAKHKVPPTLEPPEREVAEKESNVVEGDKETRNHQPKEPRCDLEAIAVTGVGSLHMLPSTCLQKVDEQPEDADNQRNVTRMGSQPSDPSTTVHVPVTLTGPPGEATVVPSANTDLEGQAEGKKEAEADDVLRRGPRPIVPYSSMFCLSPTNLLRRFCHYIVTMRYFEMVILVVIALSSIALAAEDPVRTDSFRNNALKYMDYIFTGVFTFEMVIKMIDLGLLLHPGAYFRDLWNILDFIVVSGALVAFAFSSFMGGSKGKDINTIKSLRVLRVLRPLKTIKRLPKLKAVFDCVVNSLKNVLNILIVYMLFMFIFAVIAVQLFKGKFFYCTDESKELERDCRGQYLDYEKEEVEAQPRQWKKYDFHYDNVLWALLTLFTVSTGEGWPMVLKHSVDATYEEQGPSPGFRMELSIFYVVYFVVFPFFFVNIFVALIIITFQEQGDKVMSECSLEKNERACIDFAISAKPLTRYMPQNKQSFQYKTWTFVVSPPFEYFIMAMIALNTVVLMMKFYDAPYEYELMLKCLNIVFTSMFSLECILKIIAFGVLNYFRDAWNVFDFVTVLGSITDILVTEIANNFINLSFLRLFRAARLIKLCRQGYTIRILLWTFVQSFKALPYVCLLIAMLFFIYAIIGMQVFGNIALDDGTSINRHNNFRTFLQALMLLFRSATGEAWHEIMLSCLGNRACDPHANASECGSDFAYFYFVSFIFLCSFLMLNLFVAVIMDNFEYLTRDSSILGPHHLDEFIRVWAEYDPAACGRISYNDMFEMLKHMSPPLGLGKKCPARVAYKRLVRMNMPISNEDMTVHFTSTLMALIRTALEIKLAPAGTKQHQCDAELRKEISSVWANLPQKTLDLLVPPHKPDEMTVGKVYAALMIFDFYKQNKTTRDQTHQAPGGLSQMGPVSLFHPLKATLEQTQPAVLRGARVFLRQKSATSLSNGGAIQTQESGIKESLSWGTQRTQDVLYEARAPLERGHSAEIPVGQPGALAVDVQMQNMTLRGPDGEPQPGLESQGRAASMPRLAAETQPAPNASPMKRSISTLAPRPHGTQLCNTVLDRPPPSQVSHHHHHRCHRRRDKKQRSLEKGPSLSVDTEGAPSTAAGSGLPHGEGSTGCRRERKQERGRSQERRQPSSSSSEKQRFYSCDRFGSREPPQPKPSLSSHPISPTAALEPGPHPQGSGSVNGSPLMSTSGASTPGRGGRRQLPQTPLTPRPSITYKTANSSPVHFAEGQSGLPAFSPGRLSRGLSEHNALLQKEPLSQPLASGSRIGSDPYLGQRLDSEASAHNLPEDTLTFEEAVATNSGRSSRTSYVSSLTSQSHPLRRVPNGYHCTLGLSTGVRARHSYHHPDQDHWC

[3] = target: T2, Neuropeptide Y receptor type 2 (Homo sapiens, UniProt P49146)
T2 sequence (P49146 whole entry): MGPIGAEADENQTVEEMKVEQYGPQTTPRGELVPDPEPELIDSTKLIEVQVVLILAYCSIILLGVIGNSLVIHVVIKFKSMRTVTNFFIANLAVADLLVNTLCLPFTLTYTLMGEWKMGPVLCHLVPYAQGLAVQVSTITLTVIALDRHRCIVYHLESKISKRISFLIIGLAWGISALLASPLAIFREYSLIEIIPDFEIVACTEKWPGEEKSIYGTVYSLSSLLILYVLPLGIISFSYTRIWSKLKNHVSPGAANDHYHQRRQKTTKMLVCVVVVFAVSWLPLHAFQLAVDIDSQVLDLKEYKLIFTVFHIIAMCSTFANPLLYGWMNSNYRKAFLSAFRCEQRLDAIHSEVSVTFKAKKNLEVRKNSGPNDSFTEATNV

[4] = target: T3, Muscarinic acetylcholine receptor M2 (Homo sapiens, UniProt P08172)
T3 sequence (P08172 whole entry): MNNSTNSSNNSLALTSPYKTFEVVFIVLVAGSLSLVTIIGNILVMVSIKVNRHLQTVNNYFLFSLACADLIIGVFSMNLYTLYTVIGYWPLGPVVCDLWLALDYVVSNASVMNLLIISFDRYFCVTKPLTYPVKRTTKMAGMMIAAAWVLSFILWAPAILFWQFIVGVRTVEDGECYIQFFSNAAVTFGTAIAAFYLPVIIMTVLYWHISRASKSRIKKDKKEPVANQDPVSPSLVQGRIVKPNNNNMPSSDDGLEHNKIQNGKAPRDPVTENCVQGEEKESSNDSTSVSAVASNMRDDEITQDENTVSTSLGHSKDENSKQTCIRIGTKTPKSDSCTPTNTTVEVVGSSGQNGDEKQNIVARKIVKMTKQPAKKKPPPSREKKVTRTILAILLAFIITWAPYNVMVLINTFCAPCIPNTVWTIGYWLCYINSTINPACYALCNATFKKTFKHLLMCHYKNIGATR

Glucagon receptor = Glucagon receptor (Homo sapiens, UniProt P47871)
Chain of Glucagon receptor (P47871 whole entry): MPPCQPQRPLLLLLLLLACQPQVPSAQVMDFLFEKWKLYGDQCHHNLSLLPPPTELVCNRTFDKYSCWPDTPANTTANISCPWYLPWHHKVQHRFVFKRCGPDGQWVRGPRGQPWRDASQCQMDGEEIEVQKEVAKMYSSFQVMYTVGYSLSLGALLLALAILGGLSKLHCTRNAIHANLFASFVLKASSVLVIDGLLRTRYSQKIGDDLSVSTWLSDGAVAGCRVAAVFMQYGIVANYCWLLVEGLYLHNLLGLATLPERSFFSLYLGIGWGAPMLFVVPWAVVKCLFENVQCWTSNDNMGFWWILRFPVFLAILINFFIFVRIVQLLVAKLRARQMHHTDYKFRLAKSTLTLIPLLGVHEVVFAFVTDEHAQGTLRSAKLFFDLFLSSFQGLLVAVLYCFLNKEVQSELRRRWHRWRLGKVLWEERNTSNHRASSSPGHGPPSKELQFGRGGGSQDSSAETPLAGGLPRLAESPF

[5] = target: T4, Endothelin receptor type B (Homo sapiens, UniProt P24530)
T4 sequence (P24530 whole entry): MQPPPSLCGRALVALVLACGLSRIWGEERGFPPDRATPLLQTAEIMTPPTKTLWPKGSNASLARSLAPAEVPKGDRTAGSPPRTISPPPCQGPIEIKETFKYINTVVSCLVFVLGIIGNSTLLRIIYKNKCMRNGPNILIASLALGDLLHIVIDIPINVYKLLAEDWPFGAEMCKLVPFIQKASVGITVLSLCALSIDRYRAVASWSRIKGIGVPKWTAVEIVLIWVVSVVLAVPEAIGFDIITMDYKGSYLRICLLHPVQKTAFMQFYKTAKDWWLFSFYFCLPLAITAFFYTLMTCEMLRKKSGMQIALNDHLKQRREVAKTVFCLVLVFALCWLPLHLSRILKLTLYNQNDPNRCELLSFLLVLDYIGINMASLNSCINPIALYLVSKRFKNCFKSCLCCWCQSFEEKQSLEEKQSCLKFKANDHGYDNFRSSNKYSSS
Note: assay procedure not described here.

Compound | AC50 [1] | AC50 [2] | AC50 [3] | AC50 [4] | AC50 (Glucagon receptor) | AC50 [5]
CCCC(CCC)C(=O)O [VALPROIC ACID] | > 30 µM | > 10 µM | > 30 µM | > 10 µM | > 30 µM | > 30 µM
CN(C)CCc1c[nH]c2ccc(Cn3cncn3)cc12 [RIZATRIPTAN] | > 30 µM | > 10 µM | > 30 µM | > 10 µM | > 30 µM | > 30 µM
COc1cc2nc(N3CCN(C(=O)C4CCCO4)CC3)nc(N)c2cc1OC (stereo not drawn) [TERAZOSIN] | > 30 µM | > 10 µM | > 30 µM | > 10 µM | > 30 µM | > 30 µM
